Assay results as given in paper PMC3681751, “Identification of a Novel Antimicrobial Peptide from Human Hepatitis B Virus Core Protein Arginine-Rich Domain (ARD)” (PLoS Pathogens, 2013).
Like-named read-outs stand apart in the source and are kept apart here. Residues, ends and D or L forms follow the SMILES beside them.

Legend:
[1] = system: P. aeruginosa (ATCC 27853); type: cell-based, Pseudomonas aeruginosa
Procedure: (§1) The antimicrobial activities of HBc ARD peptides were tested using a number of bacterial strains from ATCC, including Pseudomonas aeruginosa Migula strain (ATCC 27853, ampicillin-resistant), Pseudomonas aeruginosa Migula strain (ATCC 9027, ampicillin-resistant), Klebsiella pneumoniae strain (ATCC 17593), Escherichia coli strain (ATCC 25922), Staphylococcus aureus subsp. strain (ATCC 25923, methicillin-resistant), Staphylococcus aureus subsp. strain (ATCC 29213, methicillin-resistant), Staphylococcus aureus subsp. strain (ATCC 19636, methicillinresistant), and Candida albicans strain (ATCC 10231).
(§2) All peptides were purchased from Yao-Hong Biotechnology Inc. (Taipei, Taiwan). Vendors provided data of peptide characterizations, including HPLC and Mass (data not shown). Antimicrobial activity was determined as described with some modifications as detailed below. Bacteria were grown overnight in Mueller–Hinton broth (Difco) at 37°C, and during the mid-logarithmic phase, bacteria were diluted to 10^6 CFU (colony formation unit)/ml in phosphate buffer (10 mM sodium phosphate and 50 mM sodium chloride, pH 7.2). Peptides were serially diluted in the same buffer. Fifty microliter (µl) of bacteria was mixed with fifty µl of peptides at varying concentrations followed by incubation at 37°C for 3 hours without shaking. At the end of incubation, bacteria were placed on Mueller-Hinton broth agar plates, and allowed growth at 37°C overnight for measurement of minimal bactericidal concentration (MBC). […] All peptides were tested in triplicate.

[2] = system: P. aeruginosa (ATCC 9027); type: cell-based, Pseudomonas aeruginosa; details: for MBC against P. aeruginosa: summary over the P. aeruginosa strains of Table 1 (ATCC 9027, ATCC 27853)
Procedure: as §1, §2

E. coli (ATCC 25922) = type: cell-based, Escherichia coli; details: 3 h at 37°C in phosphate buffer pH 7.2; triplicate
Procedure: as §1, §2

[3] = system: K. pneumonia (ATCC 13884); type: cell-based, Klebsiella pneumoniae
[4] = ampicillin-resistant strain, 3 h at 37°C in phosphate buffer pH 7.2, triplicate
[5] = 3 h at 37°C in phosphate buffer pH 7.2, triplicate

SMILES | Antimicrobial activity, MBC ([1]; ATCC 27853, 3 h, pH 7.2) [µM] | Antimicrobial activity, MBC [1, 4] [µg/mL] | Antimicrobial activity, MBC ([2]; ATCC 9027, 3 h, pH 7.2) [µM] | Antimicrobial activity, MBC [2, 4] [µg/mL] | Antimicrobial activity, MBC (E. coli (ATCC 25922)) [µg/mL] | Antimicrobial activity, MBC [3, 5] [µg/mL] | MBC against P. aeruginosa [2] | Antimicrobial activity, MBC ([3]; ATCC 13884, 3 h, pH 7.2) [µM]
CC(C)[C@H](NC(=O)[C@@H](NC(=O)[C@@H](N)[C@@H](C)O)C(C)C)C(=O)N[C@@H](CCCNC(=N)N)C(=O)N[C@@H](CCCNC(=N)N)C(=O)N[C@@H](CCCNC(=N)N)C(=O)NCC(=O)N[C@@H](CCCNC(=N)N)C(=O)N[C@@H](CO)C(=O)N1CCC[C@H]1C(=O)N[C@@H](CCCNC(=N)N)C(=O)N[C@@H](CCCNC(=N)N)C(=O)N[C@@H](CCCNC(=N)N)C(=O)N[C@H](C(=O)N1CCC[C@H]1C(=O)N[C@@H](CO)C(=O)N1CCC[C@H]1C(=O)N[C@@H](CCCNC(=N)N)C(=O)N[C@@H](CCCNC(=N)N)C(=O)N[C@@H](CCCNC(=N)N)C(=O)N[C@@H](CCCNC(=N)N)C(=O)O)[C@@H](C)O [HBc147-167] (H-TVVRRRGRSPRRRTPSPRRRR-OH; N-terminus and C-terminus assumed) | > 32 | > 85 | > 32 | > 85 | > 85 | 21.3 |  | 
C[C@@H](O)[C@H](NC(=O)[C@H](CCCNC(=N)N)NC(=O)[C@H](CCCNC(=N)N)NC(=O)[C@@H](N)CCCNC(=N)N)C(=O)N1CCC[C@H]1C(=O)N[C@@H](CO)C(=O)N1CCC[C@H]1C(=O)N[C@@H](CCCNC(=N)N)C(=O)N[C@@H](CCCNC(=N)N)C(=O)N[C@@H](CCCNC(=N)N)C(=O)N[C@@H](CCCNC(=N)N)C(=O)N[C@@H](CO)C(=O)N[C@@H](CCC(N)=O)C(=O)N[C@@H](CO)C(=O)N1CCC[C@H]1C(=O)N[C@@H](CCCNC(=N)N)C(=O)N[C@@H](CCCNC(=N)N)C(=O)N[C@@H](CCCNC(=N)N)C(=O)N[C@@H](CCCNC(=N)N)C(=O)N[C@@H](CO)C(=O)O [HBc157-176] (H-RRRTPSPRRRRSQSPRRRRS-OH; N-terminus and C-terminus assumed) | 2 | 5.2 | 2 | 5.2 | > 83.36 | > 83.36 | strong activity | > 32
C[C@@H](O)[C@H](NC(=O)[C@H](CCCNC(=N)N)NC(=O)[C@H](CCCNC(=N)N)NC(=O)[C@@H](N)CCCNC(=N)N)C(=O)N1CCC[C@H]1C(=O)N[C@@H](CO)C(=O)N1CCC[C@H]1C(=O)N[C@@H](CCCNC(=N)N)C(=O)N[C@@H](CCCNC(=N)N)C(=O)N[C@@H](CCCNC(=N)N)C(=O)N[C@@H](CCCNC(=N)N)C(=O)N[C@@H](CO)C(=O)N[C@@H](CCC(N)=O)C(=O)N[C@@H](CO)C(=O)N1CCC[C@H]1C(=O)N[C@@H](CCCNC(=N)N)C(=O)N[C@@H](CCCNC(=N)N)C(=O)N[C@@H](CCCNC(=N)N)C(=O)N[C@@H](CCCNC(=N)N)C(=O)O [HBc157-175] (H-RRRTPSPRRRRSQSPRRRR-OH; N-terminus and C-terminus assumed) | > 32 | > 80.58 | 2 |  | > 80.58 | > 80.58 | strong activity | > 32
C[C@@H](O)[C@H](NC(=O)[C@H](CCCNC(=N)N)NC(=O)[C@H](CCCNC(=N)N)NC(=O)[C@H](CCCNC(=N)N)NC(=O)[C@@H]1CCCN1C(=O)[C@@H](N)CO)C(=O)N1CCC[C@H]1C(=O)N[C@@H](CO)C(=O)N1CCC[C@H]1C(=O)N[C@@H](CCCNC(=N)N)C(=O)N[C@@H](CCCNC(=N)N)C(=O)N[C@@H](CCCNC(=N)N)C(=O)N[C@@H](CCCNC(=N)N)C(=O)N[C@@H](CO)C(=O)N[C@@H](CCC(N)=O)C(=O)N[C@@H](CO)C(=O)N1CCC[C@H]1C(=O)N[C@@H](CCCNC(=N)N)C(=O)N[C@@H](CCCNC(=N)N)C(=O)N[C@@H](CCCNC(=N)N)C(=O)N[C@@H](CCCNC(=N)N)C(=O)O [HBc155-175] (H-SPRRRTPSPRRRRSQSPRRRR-OH; N-terminus and C-terminus assumed) | 16 | 43.23 | 2 | 5.4 | > 86.46 | > 86.46 | strong activity | > 32
C[C@@H](O)[C@H](NC(=O)[C@H](CCCNC(=N)N)NC(=O)[C@H](CCCNC(=N)N)NC(=O)[C@H](CCCNC(=N)N)NC(=O)[C@@H]1CCCN1C(=O)[C@H](CO)NC(=O)[C@H](CCCNC(=N)N)NC(=O)CN)C(=O)N1CCC[C@H]1C(=O)N[C@@H](CO)C(=O)N1CCC[C@H]1C(=O)N[C@@H](CCCNC(=N)N)C(=O)N[C@@H](CCCNC(=N)N)C(=O)N[C@@H](CCCNC(=N)N)C(=O)N[C@@H](CCCNC(=N)N)C(=O)N[C@@H](CO)C(=O)N[C@@H](CCC(N)=O)C(=O)N[C@@H](CO)C(=O)N1CCC[C@H]1C(=O)N[C@@H](CCCNC(=N)N)C(=O)N[C@@H](CCCNC(=N)N)C(=O)N[C@@H](CCCNC(=N)N)C(=O)N[C@@H](CCCNC(=N)N)C(=O)O [HBc153-175] (H-GRSPRRRTPSPRRRRSQSPRRRR-OH; N-terminus and C-terminus assumed) | 2 | 5.8 | 2 | 5.8 | 46.64 | 93.28 | strong activity | > 32
